{
  "source": "paper PMC10298626",
  "about": "(International Journal of Molecular Sciences, 2023)",
  "assay_type_in_all_cases": "cell-based, Mouse",
  "key": {"[1]": {"tested_on": "p38", "experiment": "LPS-induced phosphorylation of p38 (immunoblotting) in RAW264.7 cells", "conditions": "20, 40, and 80 μM pretreatment 2 h; LPS 500 ng/mL 30 min", "protocol": "(§1) RAW264.7 cells were seeded into 6-well plates (2 × 10^6 cells/well) and incubated for 24 h. The cells were incubated with 20, 40, and 80 μM of coumarin derivative 2 for 2 h, and then LPS (500 ng/mL) was added for 30 min (for phosphorylation of ERK, JNK, p38, and p65) and 24 h (for protein expression of iNOS).\n(§2) The cells were washed with PBS and lysed with radioimmunoprecipitation assay buffer containing 1 mM dithiothreitol (Wako, Tokyo, Japan), phosphatase inhibitor cocktail, 1 mM phenylmethylsulfonylfluoride, 1 mM sodium orthovanadate (Sigma), and 10 mM β-glycerophosphate (Sigma). The extracted proteins were centrifuged at 13,000× g rpm, separated via sodium dodecyl sulfate polyacrylamide gel electrophoresis, and transferred to polyvinylidene fluoride membranes. Nonspecific proteins were blocked by adding 5% skim milk. After blocking, primary antibodies were incubated overnight at 4 °C. After washing with the PBS-T buffer, the secondary antibodies were treated at room temperature for 2 h. For detection, the antibodies were developed with Super Signal® West Femto Substrate (ThermoFisher, Waltham, MN, USA) and analyzed on a Fusion Solo Chemiluminescence System (Vilber Lourmat, Paris, France) ECL detection system.\n(§3) Figure 5 Inhibitory effects of coumarin derivative 2 on LPS-induced phosphorylation of MAPKs and NF-κB p65 in RAW264.7 cells. […]"}, "[2]": {"tested_on": "IL-6 mRNA", "experiment": "IL-6 mRNA expression (qRT-PCR) in LPS-stimulated RAW264.7 cells", "conditions": "20, 40, and 80 μM; 2 h pretreatment, LPS 500 ng/mL 6 h", "protocol": "RAW264.7 cells were seeded into a 6-well plate (2 × 10^6 cells/well) and cultured for 24 h. The cells were treated with coumarin derivative 2 at 20, 40, and 80 μM and cultured for 2 h and with LPS (500 ng/mL) for 6 h.\nThe cells were washed with phosphate-buffered saline (PBS) and lysed with the RNeasy Mini kit (Qiagen, Hilden, Germany) for RNA isolation. RNA was converted to cDNA using the AccuPower reverse transcriptase Premix Kit (Bioneer, Daejeon, Republic of Korea). A Power SYBR Green PCR Master Mix (Applied Biosystems, Waltham, MN, USA) was used to perform polymerase chain reaction amplification. Amplification conditions were selected within the Quant 3 PCR system (Applied Biosystems). The data were normalized to the amount of glyceraldehyde 3-phosphate dehydrogenase.\nFigure 3 Effects of coumarin derivative 2 on IL-6 and TNF-α production and mRNA expression in LPS-stimulated RAW264.7 cells. (a) Effect of coumarin derivative 2 on TNF-α and IL-6 production in RAW264.7 cells. The RAW264.7 cells (1 × 10^5/well, 96-well plates) were pretreated with coumarin derivative 2 (20, 40, and 80 μM) for 2 h and incubated with LPS (500 ng/mL) for 20 h. An ELISA kit was used to analyze cell supernatants for TNF-α and IL-6. […] IL-6 and TNF-α mRNA expression levels were measured via a real-time quantitative reverse transcription polymerase chain reaction."}, "[3]": {"tested_on": "JNK", "experiment": "LPS-induced phosphorylation of JNK (immunoblotting) in RAW264.7 cells", "conditions": "20, 40, and 80 μM pretreatment 2 h; LPS 500 ng/mL 30 min", "protocol": "as §1, §2, §3"}},
  "data": [
    {"smiles": "N#CC1=C(N)Oc2c(c(=O)oc3ccccc23)C1c1cccc(F)c1", "note": "(stereo not drawn) [Coumarin derivative 2]", "values": [
      {"measurement": "Phosphorylation of p38", "setting": "[1]", "result": "inhibited"},
      {"measurement": "IL-6 mRNA expression", "setting": "[2]", "result": "significantly suppressed"},
      {"measurement": "Phosphorylation of JNK", "setting": "[3]", "result": "inhibited"}
    ]}
  ]
}
